Counter-ions that a name gives are not always drawn. Like-named read-outs stand apart in the source and are kept apart here.
Key:
[1] = tested on: spontaneous hypertensive rat; assay: antihypertensive activity, spontaneous hypertensive rat (SHR) test, indirect tail cuff method; type: in vivo
Procedure: Compounds of this invention are useful as antihypertensive agents due to their ability to depress blood pressure in mammals. Antihypertensive activity is measured in the spontaneous hypertensive rat by the indirect tail cuff method described by A. Schwartz, Ed., Methods in Pharmacology, Vol. page 135, Appleton Century Crafts, New York (1971). […] The drop in blood pressure is measured on the third day following administration. The antihypertensive activity is expressed as mm Hg decrease in mean arterial blood pressure.

mice = assay: phenylquinone-induced writhing test in mice (PQW), analgesia; type: in vivo, male, CD-1 mice; conditions: Mus musculus; for change in vivo at 20 mg/kg / change in vivo at 10 mg/kg: read-out: PQW % (percent inhibition of writhing); for ED50: read-out: ED50 (PQW)
Procedure: Compounds of this invention produce analgesia when administered to mammals. A phenylquinone-induced writhing test in mice (PQW) was used as an assay to detect analgesia. The procedure employed was a modification of Siegmund, E., Cadmus, R. and Lu, G: Proc. Soc. Exptl. Bio. Med., 95: 729 (1957). 12.5 mg of phenyl-p-benzoquinone were dissolved in 5 ml of 95% ethanol and q.s. to 100 ml with distilled water and administered to mice (10 ml/kg, i.p.). This produces a characteristic "writhe" which is defined as an inward rotation of one or more feet with twisting and turning of the trunk, drawing in of the abdominal wall, lordosis and arching of the back.
A total of 28 male, CD-1 mice (18 to 30 grams) were employed for a time response. Animals recived food and water ad libitum. Drugs to be tested were prepared with distilled water and, if insoluble, one drop of a suitable surfactant was added.
Twenty animals (5/group) were administered the drug 15, 30, 45 and 60 minutes prior to phenylquinone injections. Control animals (2/group) received an equal amount of vehicle. After the administration of phenylquinone the mice were placed separately into one-liter beakers and 5 minutes were allowed to lapse. The mice were then observed for a period of 10 minutes and the number of writhes were recorded for each animal. The formula for computing percent inhibition is: [formula]
The time period with the greatest percent of inhibition is considered the peak time.
A dose range is run in the same fashion as a time response except 10 animals per group were tested at the peak time of drug activity. Fifty animals, 4 drug groups, and a vehicle control were employed. Animals were dosed and tested in a randomized manner. An estimated ED50 was calculated by a computer linear regression analysis.

| SMILES | change in vivo at 20 mg/kg (mice; Table III, 20 mg/kg SC) [%] | change in vivo at 20 mg/kg (mice; Table II, 20 mg/kg SC) [%] | further results |
| --- | --- | --- | --- |
| CCOC(=N)N1CCC2(CC1)OCc1ccccc1OC2C (stereo not drawn) [Example 72, 2-Methylspiro[2H-1,4-benzodioxepin-3(5H)4'-piperidine]-1'-carboximidic acid, ethyl ester hydrochloride] | -51 |  | SHR mm Hg (decrease in mean arterial blood pressure) ([1]; Table III, 50 mg/kg PO): -20 mm Hg |
| CC1Oc2ccccc2COC12CCN(CCO)CC2 (stereo not drawn) [Example 48, 1'-(2-Hydroxyethyl)-2-methylspiro[2H-1,4-benzodioxepin-3(5H)4'-piperidine]] |  | -39 | SHR mm Hg (decrease in mean arterial blood pressure) ([1]; Table II, 50 mg/kg PO): -23 mm Hg |
| CC1Oc2ccc([N+](=O)[O-])cc2COC12CCNCC2 (stereo not drawn) [Example 81, 2-Methyl-7-nitrospiro[2H-1,4-benzodioxepin-3(5H)4'-piperidine]hydrochloride] | -80 |  |  |
| Cc1[nH]c2ccccc2c1CCCN1CCC2(CC1)OCc1ccccc1OC2C (stereo not drawn) [Example 53, 2-Methyl-1'-[3-(2-methylindol-3-yl)propyl]spiro[2H-1,4-benzodioxepin-3(5H)4'-piperidine]fumarate] |  | -30 | SHR mm Hg (decrease in mean arterial blood pressure) ([1]; Table II, 50 mg/kg PO): -32 mm Hg |
| CC1Oc2ccc(Cl)cc2COC12CCN(CCOC(c1ccc(F)cc1)c1ccc(F)cc1)CC2 (stereo not drawn) [Example 85, 7-Chloro-1'-[2-(bis(4-fluorophenyl)methoxy)ethyl]-2-methylspiro[2H-1,4-benzodioxepin-3(5H)4'-piperidine]hydrochloride] |  |  | SHR mm Hg (decrease in mean arterial blood pressure) ([1]; Table III, 50 mg/kg PO): -46 mm Hg; change in vivo at 20 mg/kg (mice; sc): -44% |
| COc1ccc(OCC(O)CN2CCC3(CC2)OCc2cc(Cl)ccc2OC3C)cc1 (stereo not drawn) [Example 92, 7-Chloro-2-methyl-1'-[2-hydroxy-3-(4-methoxyphenoxy)propyl]spiro[2H-1,4-benzodioxepin-3(5H)4'-piperidine]hydrochloride] | -47 |  | SHR mm Hg (decrease in mean arterial blood pressure) ([1]; Table III, 50 mg/kg PO): -66 mm Hg |
| COc1ccc2c(c1)c(CC(=O)O)c(C)n2C(=O)c1ccc(Cl)cc1 [Indomethacin, reference compound] |  |  | ED50 (mice; po): 0.7 mg/kg |
| COC(=N)N1CCC2(CC1)OCc1ccccc1OC2C (stereo not drawn) [Example 69, 2-Methylspiro[2H-1,4-benzodioxepin-3(5H)4'-piperidine]-1'-carboximidic acid, methyl ester hydrochloride] | -74 |  |  |
| CCCCCN1CCC2(CC1)OCc1ccccc1OC2C (stereo not drawn) [Example 54, 2-Methyl-1'-pentylspiro[2H-1,4-benzodioxepin-3(5H)4'-piperidine]oxalate] |  | -36 |  |
| CC1Oc2ccccc2COC12CCN(CCc1ccc([N+](=O)[O-])cc1)CC2 (stereo not drawn) [Example 56, 1'-[2-(4-Nitrophenyl)ethyl]2-methylspiro[2H-1,4-benzodioxepin-3(5H)4'piperidine]oxalate] |  | -30 | SHR mm Hg (decrease in mean arterial blood pressure) ([1]; Table II, 50 mg/kg PO): -17 mm Hg |
| CC1Oc2ccc(Cl)cc2COC12CCN(CC(O)COc1ccccc1)CC2 (stereo not drawn) [Example 91, 7-Chloro-2-methyl-1'-(2-hydroxy-3-phenoxypropyl)spiro[2H-1,4-benzodioxepin-3(5H)4'-piperidine]hydrochloride] | -67 |  | SHR mm Hg (decrease in mean arterial blood pressure) ([1]; Table III, 50 mg/kg PO): -29 mm Hg |
| CC1Oc2ccccc2COC12CCN(CCCCC(c1ccc(F)cc1)c1ccc(F)cc1)CC2 (stereo not drawn) [Example 84, 2-Methyl-1'-[5,5-bis(4-fluorophenyl)pentyl]spiro[2H-1,4-benzodioxepin-3(5H)4'-piperidine]hydrochloride] | -34 |  |  |
| CC1Oc2ccccc2COC12CCN(CCCN)CC2 (stereo not drawn) [Example 55, 2-Methyl-1'-(3-aminopropyl)spiro[2H-1,4-benzodioxepin-3(5H)4'-piperidine]dioxalate] |  | -28 | SHR mm Hg (decrease in mean arterial blood pressure) ([1]; Table II, 50 mg/kg PO): -28 mm Hg |
| CC1Oc2ccc(Cl)cc2COC12CCN(CCCCc1ccc(F)cc1)CC2 (stereo not drawn) [Example 78, 1'-[4-(4-Fluorophenyl)butyl]-7-chloro-2-methylspiro[2H-1,4-benzodioxepin-3(5H)4'-piperidine]hydrochloride] | -68 |  | SHR mm Hg (decrease in mean arterial blood pressure) ([1]; Table III, 50 mg/kg PO): -61 mm Hg; ED50 (mice; Table III, SC, printed in PQW % column): 6.8 mg/kg |
| CC(=O)N1CCC2(CC1)OCc1ccccc1OC2C (stereo not drawn) [Example 73, 1'-Acetyl-2-methylspiro[2H-1,4-benzodioxepin-3(5H)4'-piperidine]] | -27 |  |  |
| CC1Oc2ccccc2COC12CCN(CCN(C)C)CC2 (stereo not drawn) [Example 58, 1'-[2-(N,N-dimethylamino)ethyl]-2-methylspiro[2H-1,4-benzodioxepin-3(5H)4'-piperidine]dihydrochloride] |  | -6 |  |
| CC1Oc2ccccc2COC12CCN(CCNC(=N)N)CC2 (stereo not drawn) [Example 50, [2-(2-Methylspiro[2H-1,4-benzodioxepin-3(5H)4'-piperidin]-1'-yl)ethyl]-guanidine hemisulfate hemihydrate] |  | -8 |  |
| CC1Oc2ccc(Cl)cc2COC12CCN(CC(O)COc1ccc(F)cc1)CC2 (stereo not drawn) [Example 93, 7-Chloro-2-methyl-1'-[2-hydroxy-3-(4-fluorophenoxy)propyl]spiro[2H-1,4-benzodioxepin-3(5H)4'-piperidine]hydrochloride] | -88 |  | SHR mm Hg (decrease in mean arterial blood pressure) ([1]; Table III, 50 mg/kg PO): -24 mm Hg |
| CC1Oc2c(Cl)cccc2COC12CCN(CCCC(c1ccccc1)c1ccccc1)CC2 (stereo not drawn) [Example 74, 1'-(4,4-Diphenylbutyl)-9-chloro-2-methylspiro[2H-1,4-benzodioxepin-3(5H)4'-piperidine]hydrochloride] | -25 |  |  |
| CCC(=O)O[C@](Cc1ccccc1)(c1ccccc1)[C@H](C)CN(C)C [Propoxyphene, reference compound] |  |  | ED50 (mice; sc): 3.9 mg/kg |
| CC1Oc2ccccc2COC12CCN(CCN1CCOCC1)CC2 (stereo not drawn) [Example 59, 1'-[2-(1-Morpholino)ethyl]-2-methylspiro[2H-1,4-benzodioxepin-3(5H)4'-piperidine]dihydrochloride] |  | -52 | SHR mm Hg (decrease in mean arterial blood pressure) ([1]; Table II, 50 mg/kg PO): -18 mm Hg |
| CC1Oc2ccccc2COC12CCN(CCC(C#N)(c1ccccc1)c1ccccc1)CC2 (stereo not drawn) [Example 61, 2-Methyl-1'-[3-cyano-3,3-diphenylpropyl]spiro[2H-1,4-benzodioxepin-3(5H)4'-piperidine]hydrochloride] |  |  | change in vivo at 20 mg/kg (mice; sc): -25% |
| COc1ccc(OCC(O)CN2CCC3(CC2)OCc2ccccc2OC3C)cc1 (stereo not drawn) [Example 89, 2-Methyl-1'-[2-hydroxy-3-(4-methoxyphenoxy)propyl]-spiro[2H-1,4-benzodioxepin-3(5H)4'-piperidine]hydrochloride] | -57 |  | SHR mm Hg (decrease in mean arterial blood pressure) ([1]; Table III, 50 mg/kg PO): -40 mm Hg |
| CC1Oc2ccc(Cl)cc2COC12CCN(CCCC(c1cccc(F)c1)c1cccc(F)c1)CC2 (stereo not drawn) [Example 79, 1'-[4,4-Bis(3-fluorophenyl)butyl]-7-chloro-2-methylspiro[2H-1,4-benzodioxepin-3(5H)4'-piperidine]hydrochloride] | -91 |  | SHR mm Hg (decrease in mean arterial blood pressure) ([1]; Table III, 0.3 mg/kg PO): -27 mm Hg |
| CC1Oc2ccccc2COC12CCN(CC#N)CC2 (stereo not drawn) [Example 45, 1'-(Cyanomethyl)-2-methylspiro[2H-1,4-benzodioxepin-3(5H)-4'-piperidine]] |  | -15 | SHR mm Hg (decrease in mean arterial blood pressure) ([1]; Table II, 50 mg/kg PO): -29 mm Hg |
| CC1Oc2cc(Cl)ccc2COC12CCNCC2 (stereo not drawn) [Example 65, 8-Chloro-2-methylspiro[2H-1,4-benzodioxepin-3(5H)4'-piperidine]oxalate] |  |  | change in vivo at 10 mg/kg (mice; sc): -98% |
| CC1Oc2cc(Cl)ccc2COC12CCN(CC#N)CC2 (stereo not drawn) [Example 66, 8-Chloro-1'-cyanomethyl-2-methylspiro[2H-1,4-benzodioxepin-3(5H)4'-piperidine]] |  | -9 |  |
| CC1Oc2ccc(Cl)cc2COC12CCN(C(c1ccc(F)cc1)c1ccc(F)cc1)CC2 (stereo not drawn) [Example 82, 7-Chloro-2-methyl-1'-bis(4-fluorophenyl)methylspiro[2H-1,4-benzodioxepin-3(5H)4'-piperidine]hydrochloride] | -30 |  |  |
| CC1Oc2ccccc2COC12CCN(CC(O)COc1ccc(F)cc1)CC2 (stereo not drawn) [Example 90, 2-Methyl-1'-[2-hydroxy-3-(4-fluorophenoxy)propyl]spiro[2H-1,4-benzodioxepin-3(5H)4'-piperidine]hydrochloride] | -99 |  |  |
| CC1Oc2ccccc2COC12CCN(CC1CC1)CC2 (stereo not drawn) [Example 51, 1'-Cyclopropylmethyl-2-methylspiro[2H-1,4-benzodioxepin-3(5H)4'-piperidine]oxalate] |  |  | change in vivo at 10 mg/kg (mice; Table II, 10 mg/kg SC): -61% |
